In experiment [1] the test system is CD8+ T cells. The experiment can be described thus: Immunostaining of CD8+ T cells in HNSCC. The class given is in vivo, mouse. The following applies: 4NQO-induced HNSCC, treated 4 weeks. On the procedure:
(§1) The immunocomplexes were detected and visualized using related secondary antibodies conjugated with Cy2 or Cy3 (Jackson ImmunoResearch Laboratories). […] At least three sections from each HNSCC lesions were immunostained and analyzed. Tumor cells (>150) and CD8+, Ac-casp3+ and Tomato^+ cells of these tumor cell areas were counted manually in each section. The percentage of CD8+, Ac-casp3^+ and Tomato^+ cells were calculated by dividing those cells with tumor cells and averaged from the sections.

Experiment [2] concerns HNSCC tumor cells. The experiment can be described thus: Anti-active caspase-3 (Ac-casp3) immunostaining of apoptosis in HNSCC. The class given is in vivo, mouse. Conditions: 4NQO-induced HNSCC, treated 4 weeks. As to the method: as §1
The subject of experiment [3] is BMI1+ CSCs. The experiment is described as follows: In vivo labeling and lineage tracing of Tomato+ BMI1+ CSCs. The following applies: tamoxifen 1 day prior to sacrifice, treated 4 weeks. More on the design: species or system mouse. On the procedure: as §1
The test system of experiment [4] is BMI1. The experiment can be described thus: BMI1 expression in HNSCC tumors by immunostaining and Western blot. The class given is in vivo, mouse. The following applies: immunostaining and Western blot of HNSCC tumors. On the procedure: (§2) Cells were lysed using the radioimmunoprecipitation assay (RIPA) buffer (Sigma-Aldrich, Cat #R0278) added with a cocktail of protease inhibitors (Thermo Fisher Scientific, Cat ##78430) and phosphatase inhibitors (Sigma-Aldrich, Cat #4906845001). Protein extracts were resolved on a 10% or 15% SDS polyacrylamide gel and then transferred to a polyvinylidene difluoride membrane. Membranes were blocked with 5% milk for 1 h and incubated with primary antibodies overnight at 4° C. […] The signals were detected using the Clarity Western ECL kit (Bio-Rad, Cat #1705060). […] After treatment, supernatants were collected, and the protein levels of CCL5, CXCL9, CXCL10 and CXCL11 were measured with ELISA (R&D Systems, Cat #DRN00B, DCX900, DIP100, DCX110) according to the manufacturer's instructions.

Experiment [5] has as its system SCC23 cells. The experiment can be described thus: RNA-Seq and GO analysis in SCC23 cells. The class given is cell-based, human. As to the method:
Total RNA was isolated from PTC209-treated or shBMI1 knockdown SCC cells using a RNeasy Micro Kit (QIAGEN, Cat #74004). RNA quality was examined using an Agilent 2100 Bioanalyzer. Library preparation using the KAPA RNA-Seq Library Preparation Kits (KAPA Biosystems, Cat #07960140001) was performed at the UCLA sequencing core facility, and RNAs were single-end sequenced on Illumina HiSeq 3000 machines. The online DAVID bioinformatics resources were used to analyze the differentially expressed genes under the category of GOTERM_BP_DIRECT. The heatmap was generated with Heatmap Builder. The raw data was deposited at the Gene Expression Omnibus (GEO) under the subseries entry GSE140433.

Experiment [6] has as its system CCL5, CXCL9, CXCL10, and CXCL11. The experiment is described as follows: qRT-PCR and ELISA of CCL5, CXCL9, CXCL10, CXCL11 in SCC cells. Format: cell-based, human. The following applies: SCC1 and SCC23 cells. As to the method:
(§3) For qRT-PCR, total RNA was prepared using TRIzol reagent (Thermo Fisher Scientific Cat #15596026), and 1 μg of RNA was reversely transcribed with random primer (Thermo Fisher Scientific Cat #48190011), dNTP mix (Thermo Fisher Scientific, Cat #18427013), and M-MuLV Reverse Transcriptase (New England Biolabs, Cat #M0253L). The levels of mRNA were […] measured using a SYBRGreen supermix (Bio-Rad, Cat #1708880). GAPDH was used as an internal control.
as §2

The test system of experiment [7] is pH2A.X. The experiment can be described thus: pH2A.X immunofluorescent staining in 4NQO-induced HNSCC. More on the design: species or system mouse. Conditions: 4NQO-induced HNSCC in vivo.
Experiment [8] concerns pIRF3. The experiment can be described thus: pIRF3 immunofluorescent staining in 4NQO-induced HNSCC. More on the design: species or system mouse. Conditions: 4NQO-induced HNSCC in vivo.
Experiment [9] deals with IFNβ. The experiment can be described thus: qRT-PCR of IFNβ mRNA. Format: cell-based, human. The following applies: SCC23 cells. On the procedure:
as §3
On the technique in general: Real-time PCR tracks product formation cycle by cycle.

Experiment [10] relates to B16 melanoma. Format: in vivo, mouse. Conditions: B16 tumors in immunocompetent mice. As to the method: C57/6J mice were injected in the flank subcutaneously with B16 melanoma cells (250,000 cells per site). Tumors were measured every 3 days once palpable (long diameter and short diameter) with a caliper. Tumor volume was determined using the volume formula for an ellipsoid: ½×D×d^2 where D is the longer diameter and d is the shorter diameter. Mice were sacrificed when tumors reached 1000 mm^3 or upon ulceration/bleeding.

The test system of experiment [11] is SCC23 cells. The experiment can be described thus: qRT-PCR of ATM, DNA-PKcs, MRE11, JUN, FOSL1, MMP3, MMP9 in SCC23 cells. Format: cell-based, human. On the procedure:
as §3

The test system of experiment [12] is neutrophils and MDSCs (Gr1+CD11b+ cells). The experiment is described as follows: Immunofluorescent staining of neutrophils and MDSCs in HNSCC. Format: in vivo, mouse. The following applies: 4NQO-induced HNSCC.
Experiment [13] relates to SOX2+ CSCs. Format: in vivo, mouse. Conditions: only strongly stained cells counted.
Experiment [14] has as its system BMI-1. Conditions: HEK293T cell line; cited from earlier work.
Experiment [15] concerns xenografted HNSCC. The following applies: human tumor cells in immunodeficient mice; cited from earlier work.

What is called IC50 is the concentration at which inhibition is half-maximal.

Turning to `COc1cc(Br)c(Nc2nc(-c3c(C)nc4ncccn34)cs2)c(Br)c1` [PTC209, N-(2,6-dibromo-4-methoxyphenyl)-4-(2-methylimidazo[1,2-a]pyrimidin-3-yl)thiazol-2-amine], the “CD8+ T cell infiltration in HNSCC” value in experiment [1] was “could induce CD8+ T cell infiltration in tumors”. The “apoptosis in Tomato+ BMI1+ CSCs” value in experiment [2] is “able to induce apoptosis in Tomato^+ CSCs”. For the same compound, the “BMI1+ CSCs in HNSCC (in vivo labeling)” value in experiment [3] was “able to reduce BMI1+ CSCs”. The “BMI1 expression in tumors” value in experiment [4] is listed as “Reduction of BMI1 expression”. Also, the “IFN-regulated chemokines (CCL5, CXCL9, CXCL10, and CXCL11), RNA-seq heatmap” value in experiment [5] is on record as “significantly increased”. Also, the “GO analysis of induced genes” value in experiment [5] (RNA-Seq) was “induced the expression of genes associated with immune response and chemotaxis”. Besides, the “expression of CCL5, CXCL9, CXCL10, and CXCL11” value in experiment [6] was “significantly increased the expression of CCL5, CXCL9, CXCL10, and CXCL11 in both SCC1 and SCC23 cells”. Moreover, the “pH2A.X in HNSCC” value in [7] is listed as “significantly increased”. Also, the “pIRF3 in HNSCC” value in experiment [8] was “significantly increased”. In addition, in [9], the “IFNβ mRNA expression” value is recorded as “induction of IFNβ mRNA expression in SCC23 cells”. For the same compound, the “melanoma resistance to anti-PD1” value in [10] is on record as “overcomes melanoma resistance to anti-PD1 by recruiting CD8+ T cells”. Also, in experiment [11], the “ATM, DNA-PKcs, and MRE11 mRNA expression” value was “does not affect the expression of ATM, DNA-PKcs, and MRE11”; the “JUN, FOSL1, MMP3, and MMP9 mRNA expression” value is “does not change the expression of JUN, FOSL1, MMP3, and MMP9 significantly”. Moreover, the “percentage of neutrophils and MDSCs (Gr1+CD11b+ cells) in HNSCC” value in experiment [12] is “does not significantly change the percentage of neutrophils and MDSCs (Gr1^+CD11b^+ cells) in HNSCC”. In addition, the “number of SOX2+ cells” value in [13] was “significantly reduced”. Further, the IC50 in [14] was 500 nM. Also, the “xenografted HNSCC growth” value in [15] was “inhibit xenografted HNSCC growth”.

The record behind these values is patent publication US20230233566A1, “INHIBITION OF BMI1 ELIMINATES CANCER STEM CELLS AND ACTIVATES ANTITUMOR IMMUNITY” (The Regents of the University of California, priority 2020, published 2023).
